Test results from US5776949A, “2-(1H) quinolinone compounds” (Adir et Compagnie, priority 1997, dated 1998).

Columns and labels:
[1] = tested on: glutamate-dependent convulsive attacks; assay: Anti-convulsant activity in vivo: convulsions triggered by sound stimulus in DBA2 mice
Text: Likewise, in the DBA2 mice, glutamate-dependent convulsive attacks may be triggered by subjecting the animals to a sound stimulus of high frequency (14 kHz, 103 dB). The anticonvulsion effects are objectivated by the capacity to prevent convulsions arrival and the death which follows.

[2] = tested on: cerebral infarct; assay: Antineurodegenerative activity in vivo: occlusion of the middle cerebral artery (MCA), infarct volume; conditions: rats; for reduction of cortical edematous infarct volume: 20 mg/kg i.v., 1 hour after arterial occlusion
Protocol: The occlusion of the sylvian artery (or middle cerebral artery MCA) is at the origin of about 70% of cases of cerebral vascular accidents in man. This type of cerebral ischemia may be reproduced very precisely in rats by intracerebral ligature of the MCA. This definitive occlusion causes, within 24 hours, the formation of a striatocortical infarct of identical location to that observed in a clinical situation. The infarct is perfectly delimited and is therefore histologically measurable. This infarct is of the edematous type. It changes within the following 3 days into a definitive necrotic infarct. The excessive liberation of glutamate is a major pathological feature for the genesis of the cerebral infarct. An antiischemic neuroprotective compound should prevent the formation of this infarct at 24 hours and on its necrotic maturation at 96 hours.
The compounds of the invention are compounds with a potent antiischemic effect, even during post-ischemic delayed treatment (treatment by the i.v. route 1 hour after the arterial occlusion). […] This is a major activity since it also prevents necrotic maturation. Thus, when a 3-day follow-up treatment (10 mg/kg i.p. twice per day) is carried out after the initial i.v. injection (20 mg/kg), the compound of Example 1decreases the volume of the terminal infarct by 44%.

[3] = Solubility in water
[4] = tested on: AMPA receptor; assay: AMPA-induced currents in Xenopus oocytes injected with rat cerebral cortex poly(A+) mRNA (2-electrode voltage-clamp); format: cell-based
Protocol: (§1) Their efficacy may be studied by means of electrophysiological techniques in vitro and especially by means of the measurement of the currents induced by the glutamatergic agonists in the oocyte of Xenopus.
(§2) Xenopus oocytes are injected with 50 ng of poly(A^+) mRNA isolated from rat cerebral cortex and incubated for 2 to 3 days at 18° C. so as to allow the protein expression thereof. The inflow of currents induced by the EAAs are measured in a medium of composition: NaCl (82.5 mM), KCl (2.5 mM), CaCl2 (1 mM), MgCl2 (1 mM), NaH2 PO4 (1 mM), HEPES (5 mM), pH 7.4 by the 2 electrode Voltage-clamp method (voltage=-60 mV). To measure the currents induced by NMDA and glycine, MgCl2 is absent from the medium and CaCl2 is supplied at the concentration of 2 mM. The EAA agonists inducing the currents are used at the following concentrations: kainate: 100 μM; AMPA: 30 μM; glycine/NMDA: 3/30 μM. The product studied is applied 30 seconds before and during the application of the agonist.

[5] = tested on: NMDA receptor; assay: glycine/NMDA-induced currents in Xenopus oocytes injected with rat cerebral cortex poly(A+) mRNA (2-electrode voltage-clamp); format: cell-based; conditions: glycine/NMDA 3/30 μM; MgCl2 absent, CaCl2 2 mM; product applied 30 seconds before and during agonist
Protocol: as §1, §2

SMILES: O=c1[nH]c2cc([N+](=O)[O-])ccc2cc1S(=O)(=O)O [Example 1, 7-Nitro-2-(1H)-quinolinone-3-sulfonic acid]
- inhibition of mortality ([1]; 50 mg/kg i.p., 30 minutes before sound stimulus): more than 80%
- ED50 ([1]; Mus musculus, ip, 0.5 h, i.p. 30 minutes before sound stimulus (14 kHz, 103 dB), read-out: ED50 (anticonvulsant protection)): 26.9 mg/kg
- anticonvulsant effects (in words) ([1]; i.p. 30 minutes before sound stimulus): strongly protects the animals
- decrease of the volume of the terminal infarct ([2]; 20 mg/kg i.v. then 3-day follow-up 10 mg/kg i.p. twice per day): 44%
- reduction of cortical edematous infarct volume [2]: 45%

SMILES: O=c1[nH]c2cc([N+](=O)[O-])c([N+](=O)[O-])cc2cc1S(=O)(=O)O [Example 2, 6,7-Dinitro-2-(1H)-quinolinone-3-sulfonic acid]
- solubility in water (in words) [3]: soluble in water
- IC50 ([4]; AMPA 30 μM, voltage -60 mV, product applied 30 seconds before and during agonist): 0.2 µM
- selectivity for the AMPA receptor ([4]; AMPA versus NMDA, Xenopus oocytes): 40 times
- IC50 [5]: 8 µM
- reduction of cortical edematous infarct volume [2]: 27%
